Data from ChEMBL document CHEMBL1909544, “Renin inhibitors for the treatment of hypertension: design and optimization of a novel series of tertiary alcohol-bearing piperidines” (Bioorg Med Chem Lett, 2011).

How the values were obtained:
Assay type in all cases: ADME, organism-based
[1] = Oral bioavailability in Sprague-Dawley rat at 3 mg/kg; conditions: in vivo
[2] = Half life in Sprague-Dawley rat at 5 mg/kg, iv; parameters: dose 5 mg/kg, route intravenous; conditions: in vivo
[3] = Oral bioavailability in Sprague-Dawley rat at 0.3 mg/kg; conditions: in vivo
[4] = Oral bioavailability in Sprague-Dawley rat at 30 mg/kg; conditions: in vivo
[5] = Clearance in Sprague-Dawley rat at 5 mg/kg, iv; parameters: dose 5 mg/kg, route intravenous; conditions: in vivo
[6] = Volume of distribution at steady state in Sprague-Dawley rat at 5 mg/kg, iv; parameters: dose 5 mg/kg, route intravenous; conditions: in vivo, read-out: Vdss
[7] = Volume of distribution at steady state in Sprague-Dawley rat at 3 mg/kg, po and 5 mg/kg, iv; conditions: in vivo, read-out: Vdss
[8] = Half life in Sprague-Dawley rat at 3 mg/kg, po and 5 mg/kg, iv; conditions: in vivo
[9] = AUC in Sprague-Dawley rat at 3 mg/kg, po; parameters: dose 3 mg/kg, route oral; conditions: plasma
[10] = Clearance in Sprague-Dawley rat at 3 mg/kg, po and 5 mg/kg, iv; conditions: in vivo

Row | bioavailability [1] | half-life [2] | bioavailability [3] | bioavailability [4] | clearance [5] | Vd [6] | Vd [7] | half-life [8] | AUC [9] | clearance [10] | SMILES
1 | 29% | 90 min | 17% | 18% | 36 mL/min/kg | 5 L/kg |  |  |  |  | COCCCc1cc(CN(C(=O)C2CNCCC2(O)c2ccc(F)c(F)c2)C2CC2)cc(OCCOC)c1 (single isomer, unassigned)
2 | < 1% |  |  |  |  |  | 0.4 L/kg | 156 min | 0.04 µM·h | 16 mL/min/kg | O=C([C@H]1CNCC[C@]1(OCC(O)CO)c1ccc(F)c(F)c1)N(Cc1cn(Cc2cccc(F)c2)c2cccc(F)c12)C1CC1 (mixture of isomers)
3 | 37% |  |  |  |  |  | 48 L/kg | 564 min | 0.34 µM·h | 93 mL/min/kg | O=C([C@H]1CNCC[C@]1(O)c1ccc(F)c(F)c1)N(Cc1cn(Cc2cccc(F)c2)c2cccc(F)c12)C1CC1 (racemic)
